According to US8859549B2, “Potassium channel modulators” (AbbVie, Inc., priority 2011, dated 2014):

Molecular target: T1, KCNQ 2/3 channels (Homo sapiens, UniProt O43525+O43526)
T1 construct: expressed in transfected cells; host or cells: HEK293
Assay: KCNQ 2/3 channel activation, thallium flux FLIPR assay (BTC-AM dye)
Assay type: cell-based
Conditions: for Emax: HEK293, maximum response relative to the response of 10 μM retigabine (set at 100%), HEK293 KCNQ2/KCNQ3 cells, read-out: % MAX; for EC50: HEK293 cells stably expressing human KCNQ2 and KCNQ3 subunits, thallium-induced fluorescence, 4 min compound incubation
In short: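 HEK293 cells stably expressing human KCNQ2/KCNQ3 were loaded with BTC-AM (3 μg/mL, 2 h, RT) and preincubated with compound for 4 min in pH 7.3 gluconate buffer containing 0.1 mM ouabain. Flux was triggered by 6 mM TlNO3/10 mM K2SO4 and read for 3 min; EC50 came from summed responses over basal, with maximum relative to 10 μM retigabine (100%).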

CC1CN(c2nn(NC(=O)Cc3ccc(Cl)cc3)c(=O)c3ccccc23)CC(C)O1 (stereo not drawn) [Example 62, 2-(4-chlorophenyl)-N-[4-(2,6-dimethylmorpholin-4-yl)-1-oxophthalazin-2(1H)-yl]acetamide]
Emax: 85.8%
EC50: 369 nM

CCOC(=O)c1nn(NC(=O)Cc2ccc(Cl)cc2)c(=O)c2ccccc12 [Example 63, ethyl 3-{[(4-chlorophenyl)acetyl]amino}-4-oxo-3,4-dihydrophthalazine-1-carboxylate]
Emax: 64.8%
EC50: 862 nM

O=C(Cc1ccc(Cl)cc1)Nn1nc(C(=O)O)c2ccccc2c1=O [Example 65, 3-{[(4-chlorophenyl)acetyl]amino}-4-oxo-3,4-dihydrophthalazine-1-carboxylic acid]
Emax: 30.1%

O=C(CC1CCOC1)Nn1nc(N2CCOCC2)c2ccccc2c1=O (stereo not drawn) [Example 66, N-[4-(morpholin-4-yl)-1-oxophthalazin-2(1H)-yl]-2-(tetrahydrofuran-3-yl)acetamide]
Emax: 3.89%

O=C(CC1CCOC1)Nn1nc(-c2ccnc(Cl)c2)c2ccccc2c1=O (stereo not drawn) [Example 67, N-[4-(2-chloropyridin-4-yl)-1-oxophthalazin-2(1H)-yl]-2-(tetrahydrofuran-3-yl)acetamide]
Emax: 6.78%

O=C(CC1(O)CCCCC1)Nn1nc(-c2ccnc(Cl)c2)c2ccccc2c1=O [Example 71, N-[4-(2-chloropyridin-4-yl)-1-oxophthalazin-2(1H)-yl]-2-(1-hydroxycyclohexyl)acetamide]
Emax: 34%

O=C(CC1CCCO1)Nn1nc(-c2ccnc(Cl)c2)c2ccccc2c1=O (stereo not drawn) [Example 73, N-[4-(2-chloropyridin-4-yl)-1-oxophthalazin-2(1H)-yl]-2-(tetrahydrofuran-2-yl)acetamide]
Emax: 172%
EC50: 8070 nM

O=C(Cc1ccc(Cl)cc1)Nn1nc(-c2ccnc(C(F)(F)F)c2)c2ccccc2c1=O [Example 77, 2-(4-chlorophenyl)-N-{1-oxo-4-[2-(trifluoromethyl)pyridin-4-yl]phthalazin-2(1H)-yl}acetamide]
Emax: 74.9%
EC50: 458 nM

Cc1ccc(S(=O)(=O)NCc2nn(NC(=O)Cc3ccc(Cl)cc3)c(=O)c3ccccc23)cc1 [Example 78, 2-(4-chlorophenyl)-N-[4-({[(4-methylphenyl)sulfonyl]amino}methyl)-1-oxophthalazin-2(1H)-yl]acetamide]
Emax: 44.1%
EC50: 9490 nM

O=C(Cc1ccc(Cl)cc1)Nn1nc(CNS(=O)(=O)C(F)(F)F)c2ccccc2c1=O [Example 79, 2-(4-chlorophenyl)-N-[1-oxo-4-({[(trifluoromethyl)sulfonyl]amino}methyl)phthalazin-2(1H)-yl]acetamide]
Emax: 33.6%
EC50: 9080 nM

CS(=O)(=O)NCc1nn(NC(=O)Cc2ccc(Cl)cc2)c(=O)c2ccccc12 [Example 80, 2-(4-chlorophenyl)-N-[4-{[(methylsulfonyl)amino]methyl}-1-oxophthalazin-2(1H)-yl]acetamide]
Emax: 26.5%

O=C(Cc1ccc(Cl)cc1)Nn1nc([S+]([O-])c2ccccc2)c2ccccc2c1=O (stereo not drawn) [Example 82, 2-(4-chlorophenyl)-N-[1-oxo-4-(phenylsulfinyl)phthalazin-2(1H)-yl]acetamide]
Emax: 119%
EC50: 872 nM

O=C(Cc1cc(F)cc(F)c1)Nn1nc([S+]([O-])c2ccccc2)c2ccccc2c1=O (stereo not drawn) [Example 83, 2-(3,5-difluorophenyl)-N-[1-oxo-4-(phenylsulfinyl)phthalazin-2(1H)-yl]acetamide]
Emax: 105%
EC50: 1100 nM

CC(C)(C)NC(=O)NCc1nn(NC(=O)Cc2ccc(Cl)cc2)c(=O)c2ccccc12 [Example 84, N-[4-{[(tert-butylcarbamoyl)amino]methyl}-1-oxophthalazin-2(1H)-yl]-2-(4-chlorophenyl)acetamide]
Emax: 40.8%

CCOC(=O)NCc1nn(NC(=O)Cc2ccc(Cl)cc2)c(=O)c2ccccc12 [Example 85, ethyl[(3-{[(4-chlorophenyl)acetyl]amino}-4-oxo-3,4-dihydrophthalazin-1-yl)methyl]carbamate]
Emax: 87.3%
EC50: 5350 nM
